Measured values reported in ChEMBL document CHEMBL3352151, “In vitro and in vivo antibacterial evaluation and mechanistic study of ornithine based small cationic lipopeptides against antibiotic resistant clinical isolates” (Eur J Med Chem, 2014).
Converted amounts (≈) assume the structure as drawn. The source made the active and inactive calls. The rule behind the calls is not given here. Square brackets hold non-standard residues; d marks the D form. Peptide text beside a SMILES is read from it. * marks the point of attachment. Stearoyl = CCCCCCCCCCCCCCCCCC(=O)*; Orn = NCCC[CH](N)C(=O)O

How the values were obtained:
Staphylococcus aureus [1] = experiment: Antibacterial activity against clinical isolates of Staphylococcus aureus PGI/DML03054 after overnight incubation by microdilution broth assay; type: functional
Klebsiella pneumoniae [2] = experiment: Antibacterial activity against clinical isolates of kanamycin-resistant Klebsiella pneumoniae GMCH/R-Kan006 after overnight incubation by microdilution broth assay; type: functional
[3] = Membrane permeabilization activity assessed as release of calcein from liposomes at 1:50 lipopeptide:lipid molar ratio after 5 mins by fluorescence assay
Pseudomonas aeruginosa [4] = experiment: Antibacterial activity against clinical isolates of Pseudomonas aeruginosa PGI/DML02084 after overnight incubation by microdilution broth assay; type: functional
Escherichia coli [5] = experiment: Binding affinity to Escherichia coli PGI/DML02292 DNA at 12 ug/ml after 1 hr by agarose gel electrophoresis
Enterococcus faecium [6] = experiment: Antibacterial activity against clinical isolates of penicillin-resistant Enterococcus faecium GMCH/R-Pen003 after overnight incubation by microdilution broth assay; type: functional
Haemophilus influenzae [7] = experiment: Antibacterial activity against clinical isolates of ciprofloxacin-resistant Haemophilus influenzae PGI/DML01744 after overnight incubation by microdilution broth assay; type: functional
Haemophilus influenzae [8] = experiment: Antibacterial activity against clinical isolates of Haemophilus influenzae PGI/DML01751 after overnight incubation by microdilution broth assay; type: functional
Acinetobacter baumannii [9] = experiment: Antibacterial activity against clinical isolates of imipenem-resistant Acinetobacter baumannii GMCH/R-Imi003 after overnight incubation by microdilution broth assay; type: functional
Klebsiella pneumoniae [10] = experiment: Antibacterial activity against clinical isolates of Klebsiella pneumoniae GMCH/B0127 after overnight incubation by microdilution broth assay; type: functional
[11] = Membrane permeabilization activity assessed as release of calcein from liposomes at 1:10 lipopeptide:lipid molar ratio after 5 mins by fluorescence assay
[12] = system: Staphylococcus epidermidis; experiment: Antibacterial activity against clinical isolates of ampicillin-resistant Staphylococcus epidermidis GMCH/R-Amp008 after overnight incubation by microdilution broth assay; type: functional
[13] = Cytotoxicity against human HaCaT cells assessed as cell viability at 100 ug/ml after 18 hrs by MTT assay; type: cell-based; details: read-out: Activity
Acinetobacter baumannii [14] = experiment: Antibacterial activity against clinical isolates of Acinetobacter baumannii GMCH/B0083 after overnight incubation by microdilution broth assay; type: functional
Pseudomonas aeruginosa [15] = experiment: Antibacterial activity against clinical isolates of streptomycin-resistant Pseudomonas aeruginosa PGI/DML01991 after overnight incubation by microdilution broth assay; type: functional
Enterococcus faecium [16] = experiment: Antibacterial activity against clinical isolates of Enterococcus faecium GMCH/B0102 after overnight incubation by microdilution broth assay; type: functional
Escherichia coli [17] = experiment: Antibacterial activity against clinical isolates of Escherichia coli PGI/DML02250 after overnight incubation by microdilution broth assay; type: functional
Plasma = experiment: Drug degradation in human plasma at 1 ug/ml after 24 hrs by RP-HPLC analysis; type: ADME, cell-free
[18] = Cytotoxicity against human HaCaT cells assessed as cell viability at 500 ug/ml after 18 hrs by MTT assay; type: cell-based; details: read-out: Activity
Streptococcus pneumoniae [19] = experiment: Antibacterial activity against clinical isolates of erythromycin-resistant Streptococcus pneumoniae PGI/DML02213 after overnight incubation by microdilution broth assay; type: functional
Enterococcus faecalis [20] = experiment: Antibacterial activity against clinical isolates of Enterococcus faecalis GMCH/B0091 after overnight incubation by microdilution broth assay; type: functional
Streptococcus pneumoniae [21] = experiment: Antibacterial activity against clinical isolates of Streptococcus pneumoniae PGI/DML02468 after overnight incubation by microdilution broth assay; type: functional
Enterococcus faecalis [22] = experiment: Antibacterial activity against clinical isolates of gentamicin-resistant Enterococcus faecalis GMCH/R-Gen011 after overnight incubation by microdilution broth assay; type: functional
Staphylococcus aureus [23] = experiment: Antibacterial activity against clinical isolates of methicillin-resistant Staphylococcus aureus PGI/DML03149 after overnight incubation by microdilution broth assay; type: functional
[24] = system: Staphylococcus epidermidis; experiment: Antibacterial activity against clinical isolates of Staphylococcus epidermidis GMCH/B0057 after overnight incubation by microdilution broth assay; type: functional
[25] = Membrane permeabilization activity assessed as release of calcein from liposomes after 5 mins by fluorescence assay
Escherichia coli [26] = experiment: Antibacterial activity against clinical isolates of imipenem-resistant Escherichia coli PGI/DML02292 after overnight incubation by microdilution broth assay; type: functional

CCCCCCCCCCCCCCCCCC(=O)NC(CCCN)C(=O)NC(CCCN)C(=O)NC(CCCN)C(=O)NC(CCCN)C(N)=O (configuration not stated) (Stearoyl-[Orn][Orn][Orn][Orn]-NH2; configuration not given here)
MIC (Staphylococcus aureus [1]): 5 µg/mL (≈ 6.76 µM)
MIC (Klebsiella pneumoniae [2]): 8 µg/mL (≈ 10.8 µM)
Activity [3]: 43%
MIC (Pseudomonas aeruginosa [4]): 4.5 µg/mL (≈ 6.08 µM)
Activity (Escherichia coli [5]): inactive
MIC (Enterococcus faecium [6]): 12.5 µg/mL (≈ 16.9 µM)
MIC (Haemophilus influenzae [7]): 12.5 µg/mL (≈ 16.9 µM)
MIC (Haemophilus influenzae [8]): 8 µg/mL (≈ 10.8 µM)
MIC (Acinetobacter baumannii [9]): 12.5 µg/mL (≈ 16.9 µM)
MIC (Klebsiella pneumoniae [10]): 3.5 µg/mL (≈ 4.73 µM)
Activity [11]: 79%
MIC [12]: 5 µg/mL (≈ 6.76 µM)
viability at 18 h, 100 ug/ml [13]: 82%
MIC (Acinetobacter baumannii [14]): 10 µg/mL (≈ 13.5 µM)
MIC (Pseudomonas aeruginosa [15]): 2 µg/mL (≈ 2.7 µM)
MIC (Enterococcus faecium [16]): 7.5 µg/mL (≈ 10.1 µM)
MIC (Escherichia coli [17]): 7.5 µg/mL (≈ 10.1 µM)
Stability (Plasma): Stable
viability at 18 h, 500 ug/ml [18]: 67%
MIC (Streptococcus pneumoniae [19]): 12.5 µg/mL (≈ 16.9 µM)
MIC (Enterococcus faecalis [20]): 3.1 µg/mL (≈ 4.19 µM)
MIC (Streptococcus pneumoniae [21]): 4 µg/mL (≈ 5.4 µM)
MIC (Enterococcus faecalis [22]): 10 µg/mL (≈ 13.5 µM)
MIC (Staphylococcus aureus [23]): 7.5 µg/mL (≈ 10.1 µM)
MIC [24]: 5.5 µg/mL (≈ 7.43 µM)
Activity [25]: Dose-dependent effect
MIC (Escherichia coli [26]): 7.5 µg/mL (≈ 10.1 µM)
